Reference: patent US5206260A, “Hexahydropyrrolo[2,3-b]indole derivatives” (priority 1991, dated 1993)

Assays:
[1] = Metabolites of heptylphysostigmine (dog urine after oral dosing; canine liver microsomes); assay type: in vivo; conditions: mammalian metabolites
Experimental: The foregoing metabolites were originally isolated from dog urine following oral dosing with trimethyl-1,3a,8-hexahydro-1,2,3,3a,8,8a-pyrrol-[2,3-b]indole-5(3aS,8aR)heptylcarbamate at dosage levels of 1 mg/kg/day. Some of these compounds were also isolated from an incubation mixture of canine liver microsomes and trimethyl-1,3a,8-hexahydro-1,2,3,3a,8,8a-pyrrol[2,3-b]indole-5(3aS,8aR)-heptylcarbamate at a concentration of 10 μM in the presence of MgCl2 and NADPH in a buffer of approximately neutral pH at approximately 30°-40° C. The compounds were isolated from the biological matrix by selective solid phase or solvent extraction and purified by liquid chromatography (LC) using different mobile phase conditions. The procedures and the results of these experiments are noted in Examples 1-3.
Incubation of heptylphysostigmine with dog liver microsomes or 9,000×g supernatant fractions was performed to generate metabolites. The incubation mixture contained 100 μmoles of potassium phosphate, pH 7.4, 3 μmoles of MgCl2, 0.5 μmole of NADPH, 1 mg microsomal or 4 mg S9 protein and 10 nmols of ^3 H-heptylphysostigmine in a final volume of 1.0 ml. The incubations were carried out at 37° C. and 120 rpm for 10, 30 or 60 minutes. At the end of the incubation period, metabolites were extracted with a 2:1 mixture of ethyl acetate and acetone. […]

[2] = background statement, cited from earlier work
[3] = Somani et al., 1989; cited from earlier work

CCCCCCCNC(=O)Oc1ccc2c(c1)[C@]1(C)CCN(C)[C@@H]1N2C [heptylphysostigmine, trimethyl-1,3a,8-hexahydro-1,2,3,3a,8,8a-pyrrol[2,3-b]indole-5(3aS,8aR) heptylcarbamate]
metabolites discovered [1]: eseroline and eseroline glucuronide were also discovered among the mammalian metabolites

CNC(=O)Oc1ccc2c(c1)[C@]1(C)CCN(C)[C@@H]1N2C [physostigmine, trimethyl-1,3a,8-hexahydro-1,2,3,3a,8,8a-pyrrol[2,3-b]indole-5(3aS,8aR)methylcarbamate]
half-life of effect [2]: short half-life of effect
side-effects ([2]; particularly towards the digestive system): severe dose-limiting side-effects
metabolites reported [3]: metabolized to eseroline and at least three other unknown metabolites
